Test results as given in US20240173419A1, “CDK2 DEGRADERS AND USES THEREOF” (Kymera Therapeutics, Inc., priority 2022, published 2024).

Target: T1, CDK2 (Homo sapiens, UniProt P24941)
T1 construct: endogenous in cells; host or cells: MKN1 cells
Assay: CDK2 degradation in MKN1 cells (AlphaLISA)
Assay type: cell-based
Details: for CDK2 degradation 14 h: Average Dmax % / DC50: 14 h incubation; for DC50: read-out: CDK2 degradation 14 h: Mean external-Abs DC50
Method: Degradation of CDK2 in MKN1 cells was measured using AlphaLISA technology (PerkinElmer ALSU-TCDK2-A10K). MKN1 cells were maintained in RPMI1640 medium containing 10% FBS+1× penn/strep. Cells were seeded in 96-well plates (Corning 3599) at a density of 2e4 cells per well in 80 μL of fresh complete growth medium. Cells were incubated overnight at 37° C., 5% CO2. Compounds were then added to the cell assay plates with a final top concentration of 10 μM in a 1:5 dilution series with a total of 11 doses (0.001 nM-10 μM). The final volume per well was 160 μL and the final DMSO concentration was 0.1%. Additionally, wells containing no cells and only complete growth medium were also maintained on the cell assay plates (‘no cell’ wells) and processed along with experimental wells. After 14 hour-incubation at 37° C., 5% CO2, the medium was removed and the cells were washed once with 100 μL of 1×PBS. Following removal of PBS, 40 μL of 1× Lysis Buffer containing 1× protease and phosphatase inhibitors (Roche 4693116001; Roche 4906837001) were added to each well. The cell assay plate was agitated on a plate shaker at 350 rpm for 10 minutes at room temperature. 10 μL of each cell lysate were transferred to a 384-well plate (PerkinElmer 6007290). 10 μL of control lysates (from PerkinElmer ALSU-TCDK2-A10K kit) were added to separate wells to generate a standard curve. Activation Buffer was prepared by diluting 25-fold in combined Reaction Buffer 1 and Reaction Buffer 2. Acceptor Beads were diluted 50-fold in combined Reaction Buffers. 5 μL of Acceptor Mix were added to each well. The plate was sealed with Topseal-Aadhesive film, covered with foil, and incubated in the dark for 1 hour at room temperature. Under subdued light, the Donor Beads were diluted 50-fold in Dilution Buffer. 5 μL of Donor Mix were added to each well under subdued light. The plate was sealed with Topseal-A adhesive film, covered with foil, and incubated in the dark for 1 hour at room temperature. Under subdued light, the plates were analyzed on an EnVision Microplate Reader (PerkinElmer Model 2009-0030). The average signal from ‘no cell’ wells was subtracted from the signal in experimental wells prior to calculating Alpha signal for test compounds and negative control (0.100 DMSO). The data were analyzed using Xlfit (v5.3. 1.3) and the dose-dependent CDK2 degradation data were fit using a four-parameter logistic model to calculate DC50.

For Cc1cc(S(=O)(=O)C2CC(N3CCC4(CC3)CN(c3cccc5c3n(C)c(=O)n5C3CCC(=O)NC3=O)C4)C2)ccc1Nc1ncc2cc(Cl)c(=O)n(C3CCCC3)c2n1 (stereo not drawn) [I-35], the “CDK2 degradation 14 h: Average Dmax %” value was “B (B (>50% -75%))” and the DC50 was under 100 nM.
With Cc1cc(S(=O)(=O)C2CC3(CCN(CC4CCN(c5ccc(NC6CCC(=O)NC6=O)cc5F)CC4)CC3)C2)ccc1Nc1ncc2cc(Cl)c(=O)n(C3CCCC3)c2n1 (stereo not drawn) [I-36] the “CDK2 degradation 14 h: Average Dmax %” value was “B (B (>50% -75%))” and the DC50 was under 100 nM.
For Cc1cc(S(=O)(=O)C2CC3(CCN(CC4CCN(c5ccc(NC6CCC(=O)NC6=O)cc5)CC4)CC3)C2)ccc1Nc1ncc2cc(Cl)c(=O)n(C3CCCC3)c2n1 (stereo not drawn) [I-37], the “CDK2 degradation 14 h: Average Dmax %” value was “B (B (>50% -75%))” and the DC50 was 100 to 500 nM.
For Cc1cc(S(=O)(=O)C2CC3(CCN(CC4CCN(c5ccc6c(c5F)n(C)c(=O)n6C5CCC(=O)NC5=O)CC4)CC3)C2)ccc1Nc1ncc2cc(Cl)c(=O)n(C3CCCC3)c2n1 (stereo not drawn) [I-38], the “CDK2 degradation 14 h: Average Dmax %” value was “A (A (>75% o))” and the DC50 was under 100 nM.
In the case of Cc1cc(S(=O)(=O)C2CCC(N3CC4(CCN(c5cccc6c5n(C)c(=O)n6C5CCC(=O)NC5=O)CC4)C3)CC2)ccc1Nc1ncc2c(n1)N(C1CCCC1)C(=O)C21CC1 (stereo not drawn) [I-39], the “CDK2 degradation 14 h: Average Dmax %” value is reported as “B (B (>50% -75%))” and the DC50 is reported as under 100 nM.
With Cc1cc(S(=O)(=O)C2CC3(CCN(CCC4CCN(c5cccc6c5n(C)c(=O)n6C5CCC(=O)NC5=O)CC4)CC3)C2)ccc1Nc1ncc2cc(Cl)c(=O)n(C3CCCC3)c2n1 (stereo not drawn) [I-40] the “CDK2 degradation 14 h: Average Dmax %” value was “A (A (>75% o))” and the DC50 was under 100 nM.
With Cc1cc(S(=O)(=O)C2CC3(CCN(CC4CCN(c5cccc6c5n(C)c(=O)n6C5CCC(=O)NC5=O)CC4)CC3)C2)ccc1Nc1ncc2c(n1)N(C1CCCC1)C(=O)C21CC1 (stereo not drawn) [I-42] the “CDK2 degradation 14 h: Average Dmax %” value was “A (A (>75% o))” and the DC50 was under 100 nM.
With Cc1cc(S(=O)(=O)C2CCN(CCN3CCN(c4cccc5c4n(C)c(=O)n5C4CCC(=O)NC4=O)CC3=O)CC2)ccc1Nc1ncc2cc(Cl)c(=O)n(C3CCCC3)c2n1 (stereo not drawn) [I-43] the “CDK2 degradation 14 h: Average Dmax %” value was “A (A (>75% o))” and the DC50 was 100 to 500 nM.
With Cc1cc(S(=O)(=O)C2CC3(CCN(CC4CCN(c5cccc6c5n(C)c(=O)n6C5CCC(=O)NC5=O)CC4)CC3)C2)ccc1Nc1ncc2cc(Cl)c(=O)n(C3CCCC34CC4)c2n1 (stereo not drawn) [I-44] the “CDK2 degradation 14 h: Average Dmax %” value was “A (A (>75% o))” and the DC50 was under 100 nM.
In the case of Cc1cc(S(=O)(=O)C2CC3(CCN(CC4(F)CCN(c5cccc6c5n(C)c(=O)n6C5CCC(=O)NC5=O)CC4)CC3)C2)ccc1Nc1ncc2cc(Cl)c(=O)n(C3CCCC3)c2n1 (stereo not drawn) [I-45], the “CDK2 degradation 14 h: Average Dmax %” value is reported as “A (A (>75% o))” and the DC50 is reported as 100 to 500 nM.
In the case of Cc1cc(S(=O)(=O)C2CCC(CN(C)C3CCN(c4cccc5c4n(C)c(=O)n5C4CCC(=O)NC4=O)CC3)CC2)ccc1Nc1ncc(C(F)(F)F)c(-c2cnn(C)c2)n1 (stereo not drawn) [I-46], the “CDK2 degradation 14 h: Average Dmax %” value is reported as “A (A (>75% o))” and the DC50 is reported as under 100 nM.
Cc1cc(S(=O)(=O)C2CCN(CCCN3CCN(c4cccc5c4n(C)c(=O)n5C4CCC(=O)NC4=O)CC3)CC2)ccc1Nc1ncc2cc(Cl)c(=O)n(C(C)C)c2n1 (stereo not drawn) [I-47] was tested, and the “CDK2 degradation 14 h: Average Dmax %” value was “A (A (>75% o))” and the DC50 was under 100 nM.
Cc1cc(S(=O)(=O)C2CCN(C(=O)CN3CCN(c4cccc5c4n(C)c(=O)n5C4CCC(=O)NC4=O)CC3)CC2)ccc1Nc1ncc2cc(Cl)c(=O)n(C3CCCC3)c2n1 (stereo not drawn) [I-48] was tested, and the “CDK2 degradation 14 h: Average Dmax %” value was “B (B (>50% -75%))” and the DC50 was under 100 nM.
Compound Cc1cc(S(=O)(=O)C2CCN(CCN3CCN(c4cccc5c4n(C)c(=O)n5C4CCC(=O)NC4=O)CC3)CC2)ccc1Nc1ncc2c(n1)N(C1CCCC1)C(=O)C21CC1 (stereo not drawn) [I-50, 3-[4-[4-[2-[4-[4-[(7′-Cyclopentyl-6′-oxo-spiro[cyclopropane-1,5′-pyrrolo[2,3-d]pyrimidine]-2′-yl)amino]-3-methyl-phenyl]sulfonyl-1-piperidyl]ethyl]piperazin-1-yl]-3-methyl-2-oxo-benzimidazol-1-yl]piperidine-2,6-dione] has a DC50 of under 100 nM and a Dmax (MKN-1, 14 h incubation) of over 75%.
For Cc1cc(S(=O)(=O)C2CCN(C3CC4(CCN(c5cccc6c5n(C)c(=O)n6C5CCC(=O)NC5=O)CC4)C3)CC2)ccc1Nc1ncc2c(n1)N(C1CCCC1)C(=O)C21CC1 (stereo not drawn) [I-52], the “CDK2 degradation 14 h: Average Dmax %” value was “B (B (>50% -75%))” and the DC50 was 100 to 500 nM.
For Cc1cc(S(=O)(=O)[C@H]2CC[C@H](CN(C)C3CCN(c4cccc5c4n(C)c(=O)n5C4CCC(=O)NC4=O)CC3)CC2)ccc1Nc1ncc2c(n1)N(C1CCCC1)C(=O)C21CC1 (stereo partly drawn) [I-53], the “CDK2 degradation 14 h: Average Dmax %” value was “A (A (>75% o))” and the DC50 was under 100 nM.
For Cc1cc(S(=O)(=O)C2CC3(CCN(CC4CCN(c5ccc6c(c5)n(C)c(=O)n6C5CCC(=O)NC5=O)CC4)CC3)C2)ccc1Nc1ncc2cc(Cl)c(=O)n(C3CCCC3)c2n1 (stereo not drawn) [I-57], the “CDK2 degradation 14 h: Average Dmax %” value was “A (A (>75% o))” and the DC50 was under 100 nM.
Cc1cc(S(=O)(=O)C2CC3(CCN(CC4CCN(c5cccc6c5n(C)c(=O)n6C5CCC(=O)NC5=O)CC4)CC3)C2)ccc1Nc1ncc2cc(Cl)c(=O)n(C3CCCC3)c2n1 (stereo not drawn) [I-58] was tested, and the “CDK2 degradation 14 h: Average Dmax %” value was “A (A (>75% o))” and the DC50 was under 100 nM.
For Cc1cc(S(=O)(=O)C2CCN(CCC3CCN(c4cccc5c4n(C)c(=O)n5C4CCC(=O)NC4=O)CC3)CC2)ccc1Nc1ncc2cc(Cl)c(=O)n(C3CCCC34CC4)c2n1 (stereo not drawn) [I-59], the “CDK2 degradation 14 h: Average Dmax %” value was “A (A (>75% o))” and the DC50 was under 100 nM.
Cc1cc(S(=O)(=O)C2CCC(CN(C)C3CCN(c4cccc5c4n(C)c(=O)n5C4CCC(=O)NC4=O)CC3)CC2)ccc1Nc1ncc2cc(Cl)c(=O)n(C3CCCC34CC4)c2n1 (stereo not drawn) [I-60] was tested, and the “CDK2 degradation 14 h: Average Dmax %” value was “A (A (>75% o))” and the DC50 was under 100 nM.
For Cc1cc(S(=O)(=O)C2CCN(CCN3CCN(c4cccc5c4n(C)c(=O)n5C4CCC(=O)NC4=O)CC3)CC2)ccc1Nc1ncc(C(F)(F)F)c(-c2cnn(C)c2)n1 (stereo not drawn) [I-61], the “CDK2 degradation 14 h: Average Dmax %” value was “A (A (>75% o))” and the DC50 was under 100 nM.
With Cc1cc(S(=O)(=O)[C@H]2CC[C@H](CN(C)C3CCN(c4cccc5c4n(C)c(=O)n5C4CCC(=O)NC4=O)CC3)CC2)ccc1Nc1ncc2ccc(=O)n(C3CCCC3)c2n1 (stereo partly drawn) [I-63] the “CDK2 degradation 14 h: Average Dmax %” value was “A (A (>75% o))” and the DC50 was under 100 nM.
In the case of Cc1cc(S(=O)(=O)C2CCN(CCN3CCN(c4cccc5c4n(C)c(=O)n5C4CCC(=O)NC4=O)CC3)CC2)ccc1Nc1ncc2cc(Cl)c(=O)n(C3CCCC3)c2n1 (stereo not drawn) [I-64], the “CDK2 degradation 14 h: Average Dmax %” value is reported as “A (A (>75% o))” and the DC50 is reported as under 100 nM.
In the case of Cc1cc(S(=O)(=O)C(C)(C)CCO[C@H]2CC[C@H](CN3CCC(c4ccc5c(c4)n(C)c(=O)n5C4CCC(=O)NC4=O)CC3)CC2)ccc1Nc1ncc2cc(Cl)c(=O)n(C3CCCC3)c2n1 (stereo partly drawn) [I-65], the “CDK2 degradation 14 h: Average Dmax %” value is reported as “A (A (>75% o))” and the DC50 is reported as under 100 nM.
Cc1cc(S(=O)(=O)C2CCC3(CC2)CN(CC2CCN(c4cccc5c4n(C)c(=O)n5C4CCC(=O)NC4=O)CC2)C3)ccc1Nc1ncc2cc(Cl)c(=O)n(C3CCCC3)c2n1 (stereo not drawn) [I-66] was tested, and the “CDK2 degradation 14 h: Average Dmax %” value was “A (A (>75% o))” and the DC50 was 100 to 500 nM.
With Cc1cc(S(=O)(=O)C2CCC3(CC2)CN(CC2CCN(c4ccc5c(c4)n(C)c(=O)n5C4CCC(=O)NC4=O)CC2)C3)ccc1Nc1ncc2cc(Cl)c(=O)n(C3CCCC3)c2n1 (stereo not drawn) [I-67] the “CDK2 degradation 14 h: Average Dmax %” value was “A (A (>75% o))” and the DC50 was 100 to 500 nM.
In the case of Cc1cc(S(=O)(=O)CCCO[C@H]2CC[C@H](CN3CCC(c4ccc5c(c4)n(C)c(=O)n5C4CCC(=O)NC4=O)CC3)CC2)ccc1Nc1ncc(C(F)(F)F)c(-c2cnn(C)c2)n1 (stereo partly drawn) [I-68], the DC50 is reported as under 100 nM.
For Cc1cc(S(=O)(=O)C2CC3(CCN(CC4CCN(c5cc(F)cc(NC6CCC(=O)NC6=O)c5)CC4)CC3)C2)ccc1Nc1ncc2cc(Cl)c(=O)n(C3CCCC3)c2n1 (stereo not drawn) [I-69], the “CDK2 degradation 14 h: Average Dmax %” value was “A (A (>75% o))” and the DC50 was 100 to 500 nM.
In the case of Cc1cc(S(=O)(=O)C2CC3(CCN(CC4CCN(c5ccc(F)c(NC6CCC(=O)NC6=O)c5)CC4)CC3)C2)ccc1Nc1ncc2cc(Cl)c(=O)n(C3CCCC3)c2n1 (stereo not drawn) [I-70], the “CDK2 degradation 14 h: Average Dmax %” value is reported as “B (B (>50% -75%))” and the DC50 is reported as over 1000 nM.
In the case of Cc1cc(S(=O)(=O)C2CC3(CCN(CC4CCN(c5cccc(NC6CCC(=O)NC6=O)c5F)CC4)CC3)C2)ccc1Nc1ncc2cc(Cl)c(=O)n(C3CCCC3)c2n1 (stereo not drawn) [I-71], the “CDK2 degradation 14 h: Average Dmax %” value is reported as “A (A (>75% o))” and the DC50 is reported as 100 to 500 nM.
COc1cc(N2CCC(CN3CCC4(CC3)CC(S(=O)(=O)c3ccc(Nc5ncc6cc(Cl)c(=O)n(C7CCCC7)c6n5)c(C)c3)C4)CC2)ccc1NC1CCC(=O)NC1=O (stereo not drawn) [I-72] was tested, and the “CDK2 degradation 14 h: Average Dmax %” value was “A (A (>75% o))” and the DC50 was 100 to 500 nM.
With Cc1cc(S(=O)(=O)C2CC3(CCN(CC4CCN(c5ccc(OC6CCC(=O)NC6=O)cc5)CC4)CC3)C2)ccc1Nc1ncc2cc(Cl)c(=O)n(C3CCCC3)c2n1 (stereo not drawn) [I-73] the “CDK2 degradation 14 h: Average Dmax %” value was “A (A (>75% o))” and the DC50 was under 100 nM.
